In patent USRE40086E1, “Method for treating bacterial infection with novel 7-substituted-9-substituted amino 6-demethyl-6-deoxytetracyclines” (Wyeth Holdings Corporation, priority 1991, dated 2008):

What was measured:
Type in all cases: cell-based
E. coli PRP1 TetA = experiment: MIC, agar dilution (Table IA); details: unit assumed
E. coli J3272 TetD = experiment: MIC, agar dilution (Table IA); details: unit assumed
[1] = test system: S. aureus Smith (Sensitive); experiment: MIC, agar dilution; details: S. aureus SMITH (MP); Table IA; unit assumed
S. mariescens FDOR 8733 = experiment: MIC, agar dilution (Table IA); details: unit assumed
[2] = test system: S. aureus IVES 2943 (meth. resistant); experiment: MIC, agar dilution; details: S. aureus IVES 2943; Table IA; unit assumed
E. coli J2175 = experiment: MIC, agar dilution (Table IA); details: unit assumed
[3] = test system: X. maltophilia NEMC 87210; experiment: MIC, agar dilution (Table IA); details: unit assumed
[4] = test system: S. haemolyticus AVAH 88-3; experiment: MIC, agar dilution; details: S. hemolyticus AVHAH 88-3; Table IA; unit assumed
E. coli UBMS 90-5 = experiment: MIC, agar dilution (Table IA); details: unit assumed
[5] = test system: Ps. acruginosa ATCC 27853; experiment: MIC, agar dilution (Table IA); details: unit assumed
E. faecalis 12201 = experiment: MIC, agar dilution; details: Enterococcus 12201; Table IA; unit assumed
E. coli #311 (MP) = experiment: MIC, agar dilution (Table IA); details: unit assumed
E. coli UBMS 89-1 (tetM) = experiment: MIC, agar dilution; details: E. coli UBMS 89-1 TetM; Table IA; unit assumed
E. faecalis ATCC 29212 = experiment: MIC, agar dilution; details: E. faecalis ATCC 29212; Table IA; unit assumed
[6] = test system: S. aureus UBMS 88-5 (tetM); experiment: MIC, agar dilution; details: S. aureus UBMS 88-5 TetM; Table IA; unit assumed
E. coli J3272 TetC = experiment: MIC, agar dilution (Table IA); details: unit assumed
E. coli J3272 Tet sens. = experiment: MIC, agar dilution (Table IA); details: unit assumed
[7] = test system: S. aureus UBMS 88-4 (Sensitive); experiment: MIC, agar dilution; details: S. aureus UBMS 88-4; Table IA; unit assumed
E. coli MC4100 TetB = experiment: MIC, agar dilution (Table IA); details: unit assumed
[8] = test system: S. aureus ATCC 29213 (Sensitive); experiment: MIC, agar dilution; details: S. aureus ATCC 29213; Table IA; unit assumed
[9] = test system: E. coli UBMS 89-2 (Sensitive); experiment: MIC, agar dilution; details: E. coli UBMS 89-2 Tet Sens.; Table IA; unit assumed
[10] = test system: S. aureus UBMS 90-2 (tetM); experiment: MIC, agar dilution; details: S. aureus UBMS 90-2 TetM; Table IA; unit assumed
E. coli UBMS 88-1 (tetB) = experiment: MIC, agar dilution; details: E. coli UBMS 88-1 TetB; Table IA; unit assumed
E. coli ATCC 25922 = experiment: MIC, agar dilution; details: E. coli ATCC 25922; Table IA; unit assumed
[11] = test system: S. aureus IVES 1983 (meth. resistant); experiment: MIC, agar dilution; details: S. aureus IVES 1983; Table IA; unit assumed
[12] = test system: S. aureus UBMS 90-3 (Sensitive); experiment: MIC, agar dilution; details: S. aureus UBMS 90-3; Table IA; unit assumed
[13] = test system: S. aureus UBMS 90-1 (tetM); experiment: MIC, agar dilution; details: S. aureus UBMS 90-1 TetM; Table IA; unit assumed
S. aureus ROSE (MP) = experiment: MIC, agar dilution (Table IA); details: unit assumed
[14] = test system: S. aureus UBMS 88-7 (tetK); experiment: MIC, agar dilution; details: S. aureus UBMS 88-7 TetK; Table IA; unit assumed
S. aureus NEMC 8769/89-4 = experiment: MIC, agar dilution (Table IA); details: unit assumed
E. coli BAJ9003 = experiment: MIC, agar dilution (Table IA); details: unit assumed
E. coli UBMS 90-4 (tetM) = experiment: MIC, agar dilution; details: E. coli UBMS 90-4 TetM; Table IA; unit assumed

SMILES | Antibacterial activity (MIC) (E. coli PRP1 TetA) [µg/mL] | Antibacterial activity (MIC) (E. coli J3272 TetD) [µg/mL] | Antibacterial activity (MIC) [1] [µg/mL] | Antibacterial activity (MIC) (S. mariescens FDOR 8733) [µg/mL] | Antibacterial activity (MIC) [2] [µg/mL] | Antibacterial activity (MIC) (E. coli J2175) [µg/mL] | Antibacterial activity (MIC) [3] [µg/mL] | Antibacterial activity (MIC) [4] [µg/mL] | Antibacterial activity (MIC) (E. coli UBMS 90-5) [µg/mL] | Antibacterial activity (MIC) [5] [µg/mL] | Antibacterial activity (MIC) (E. faecalis 12201) [µg/mL] | Antibacterial activity (MIC) (E. coli #311 (MP)) [µg/mL] | Antibacterial activity (MIC) (E. coli UBMS 89-1 (tetM)) [µg/mL] | Antibacterial activity (MIC) (E. faecalis ATCC 29212) [µg/mL] | Antibacterial activity (MIC) [6] [µg/mL] | Antibacterial activity (MIC) (E. coli J3272 TetC) [µg/mL] | Antibacterial activity (MIC) (E. coli J3272 Tet sens.) [µg/mL] | Antibacterial activity (MIC) [7] [µg/mL] | Antibacterial activity (MIC) (E. coli MC4100 TetB) [µg/mL] | Antibacterial activity (MIC) [8] [µg/mL] | further results
CN(C)c1cc(NC(=O)CBr)c(O)c2c1CC1CC3[C@H](N(C)C)C(O)=C(C(N)=O)C(=O)[C@@]3(O)C(O)=C1C2=O.Cl.Cl (stereo partly drawn) [III, [4S-(4alpha,12aalpha)]-9-[(Bromoacetyl)amino)-4,7-bis(dimethylamino)-1,4,4a,5,5a,6,11,12a-octahydro-3,10,12,12a-tetrahydroxy-1,11-dioxo-2-naphthacenecarboxamide dihydrochloride] | > 32 | 32 | 0.5 | > 32 | 4 | 32 | 4 | 2 | 16 | > 32 | 1 | 8 | 4 | 0.5 | 1 | > 32 | 16 | 0.5 | > 32 | 0.5 | Antibacterial activity (MIC) [9]: 32 µg/mL; Antibacterial activity (MIC) [10]: 0.5 µg/mL; Antibacterial activity (MIC) (E. coli UBMS 88-1 (tetB)): > 32 µg/mL; Antibacterial activity (MIC) (E. coli ATCC 25922): 16 µg/mL; Antibacterial activity (MIC) [11]: 4 µg/mL; Antibacterial activity (MIC) [12]: 0.5 µg/mL; Antibacterial activity (MIC) [13]: 1 µg/mL; Antibacterial activity (MIC) (S. aureus ROSE (MP)): 8 µg/mL; Antibacterial activity (MIC) [14]: 2 µg/mL; Antibacterial activity (MIC) (S. aureus NEMC 8769/89-4): 0.12 µg/mL; Antibacterial activity (MIC) (E. coli BAJ9003): 0.25 µg/mL
Br.CC(Br)C(=O)Nc1cc(N(C)C)c2c(c1O)C(=O)C1=C(O)C3(O)C(=O)C(C(N)=O)=C(O)C(N(C)C)C3CC1C2 (stereo not drawn) [JJJ] | > 32 | > 32 | 4 | > 32 | 32 | > 32 | 16 | 16 | > 32 | > 32 | 16 | > 32 | 32 | 16 | 8 | > 32 | > 32 | 8 | > 32 | 4 | Antibacterial activity (MIC) (E. coli UBMS 90-4 (tetM)): > 32 µg/mL; Antibacterial activity (MIC) [9]: > 32 µg/mL; Antibacterial activity (MIC) [10]: 8 µg/mL; Antibacterial activity (MIC) (E. coli UBMS 88-1 (tetB)): > 32 µg/mL; Antibacterial activity (MIC) (E. coli ATCC 25922): > 32 µg/mL; Antibacterial activity (MIC) [11]: 32 µg/mL; Antibacterial activity (MIC) [12]: 2 µg/mL; Antibacterial activity (MIC) [13]: 16 µg/mL; Antibacterial activity (MIC) (S. aureus ROSE (MP)): > 32 µg/mL; Antibacterial activity (MIC) [14]: 16 µg/mL; Antibacterial activity (MIC) (S. aureus NEMC 8769/89-4): 4 µg/mL; Antibacterial activity (MIC) (E. coli BAJ9003): 4 µg/mL
CN(C)c1cc(NC(=O)CN2CCC2)c(O)c2c1CC1CC3C(N(C)C)C(O)=C(C(N)=O)C(=O)C3(O)C(O)=C1C2=O (stereo not drawn) [LLL, (7S-(7alpha,10aalpha)]-N-[9-(Aminocarbonyl)-4,7-bis(dimethylamino)-5,5a,6,6a,7,10,10a,12-octahydro-1,8,10a,11-tetrahydroxy-10,12-dioxo-2-naphthacenyl]-1-azetidineacetamide] | 1 | 0.12 | 0.25 | 2 | 2 | 0.25 | 1 | 0.25 | 0.25 | 8 | 0.25 | 0.25 | 0.25 | 0.25 | 0.25 | 0.5 | 0.25 | 0.25 | 0.5 | 0.25 | Antibacterial activity (MIC) (E. coli UBMS 90-4 (tetM)): 0.25 µg/mL; Antibacterial activity (MIC) [9]: 0.5 µg/mL; Antibacterial activity (MIC) [10]: 0.25 µg/mL; Antibacterial activity (MIC) (E. coli UBMS 88-1 (tetB)): 0.5 µg/mL; Antibacterial activity (MIC) (E. coli ATCC 25922): 0.25 µg/mL; Antibacterial activity (MIC) [11]: 2 µg/mL; Antibacterial activity (MIC) [12]: 0.12 µg/mL; Antibacterial activity (MIC) [13]: 0.25 µg/mL; Antibacterial activity (MIC) (S. aureus ROSE (MP)): 2 µg/mL; Antibacterial activity (MIC) [14]: 2 µg/mL; Antibacterial activity (MIC) (S. aureus NEMC 8769/89-4): 0.12 µg/mL; Antibacterial activity (MIC) (E. coli BAJ9003): 0.06 µg/mL
CN(C)c1cc(NC(=O)CN2CCOCC2)c(O)c2c1CC1CC3[C@H](N(C)C)C(O)=C(C(N)=O)C(=O)[C@@]3(O)C(O)=C1C2=O.Cl.Cl (stereo partly drawn) [NN, [7S-(7alpha,10aalpha)]-N-[9-(Aminocarbonyl)-4,7-bis(dimethylamino)-5,5a,6,6a,7,10,10a,12-octahydro-1,8,10a,11-tetrahydroxy-10,12-dioxo-2-naphthacenyl)-4-morpholineacetamide dihydrochloride] | > 32 | 32 | 2 | > 32 | > 32 | > 32 | 32 | 32 | > 32 | > 32 | 2 | > 32 | 32 | 2 | 4 | > 32 | > 32 | 2 | > 32 | 2 | Antibacterial activity (MIC) [9]: > 32 µg/mL; Antibacterial activity (MIC) [10]: 2 µg/mL; Antibacterial activity (MIC) (E. coli UBMS 88-1 (tetB)): > 32 µg/mL; Antibacterial activity (MIC) (E. coli ATCC 25922): > 32 µg/mL; Antibacterial activity (MIC) [11]: > 32 µg/mL; Antibacterial activity (MIC) [12]: 2 µg/mL; Antibacterial activity (MIC) [13]: 4 µg/mL; Antibacterial activity (MIC) (S. aureus ROSE (MP)): > 32 µg/mL; Antibacterial activity (MIC) [14]: 32 µg/mL; Antibacterial activity (MIC) (S. aureus NEMC 8769/89-4): 0.5 µg/mL; Antibacterial activity (MIC) (E. coli BAJ9003): 0.5 µg/mL
